Data as given in ChEMBL document CHEMBL4507290 (2021).

Columns and labels:
[1] = tested on: Hepatocyte growth factor receptor (Homo sapiens), P08581 [M1250T]; conditions: Compound concentration 1000.0 nM
[2] = target: Tyrosine-protein kinase JAK1 (Homo sapiens) (UniProt P23458); conditions: Compound concentration 1000.0 nM
[3] = target: Dual specificity protein kinase TTK (Homo sapiens) (UniProt P33981); conditions: Compound concentration 1000.0 nM
[4] = target: Casein kinase I isoform alpha-like (Homo sapiens) (UniProt Q8N752); conditions: Compound concentration 1000.0 nM
[5] = target: Phosphorylase b kinase gamma catalytic chain, skeletal muscle/heart isoform (Homo sapiens) (UniProt Q16816); conditions: Compound concentration 1000.0 nM
[6] = target: MAP kinase-activated protein kinase 5 (Homo sapiens) (UniProt Q8IW41); conditions: Compound concentration 1000.0 nM
[7] = target: Rhodopsin kinase GRK7 (Homo sapiens) (UniProt Q8WTQ7); conditions: Compound concentration 1000.0 nM
[8] = target: Inhibitor of nuclear factor kappa-B kinase subunit alpha (Homo sapiens) (UniProt O15111); conditions: Compound concentration 1000.0 nM
[9] = target: T1, Sodium-dependent dopamine transporter (Homo sapiens, UniProt Q01959); conditions: Compound concentration 10.0 uM
[10] = target: Hepatocyte growth factor receptor (Homo sapiens) (UniProt P08581); conditions: Compound concentration 1000.0 nM
[11] = target: Serine/threonine-protein kinase BRSK2 (Homo sapiens) (UniProt Q8IWQ3); conditions: Compound concentration 1000.0 nM
[12] = target: Bone morphogenetic protein receptor type-1A (Homo sapiens) (UniProt P36894); conditions: Compound concentration 1000.0 nM
[13] = target: Dual specificity protein kinase CLK3 (Homo sapiens) (UniProt P49761); conditions: Compound concentration 1000.0 nM
[14] = target: Epithelial discoidin domain-containing receptor 1 (Homo sapiens) (UniProt Q08345); conditions: Compound concentration 1000.0 nM
[15] = target: Alpha-2A adrenergic receptor (Homo sapiens) (UniProt P08913); conditions: Compound concentration 10.0 uM
[16] = target: Serine/threonine-protein kinase pim-3 (Homo sapiens) (UniProt Q86V86); conditions: Compound concentration 1000.0 nM
[17] = target: T1, Sodium-dependent dopamine transporter; assay: […] binding assay (SLC6A3)
[18] = target: Histamine H3 receptor (Homo sapiens) (UniProt Q9Y5N1); conditions: Compound concentration 10.0 uM
[19] = target: Tyrosine-protein kinase HCK (Homo sapiens) (UniProt P08631); conditions: Compound concentration 1000.0 nM
[20] = target: Receptor tyrosine-protein kinase erbB-3 (Homo sapiens) (UniProt P21860); conditions: Compound concentration 1000.0 nM
[21] = target: BMP-2-inducible protein kinase (Homo sapiens) (UniProt Q9NSY1); conditions: Compound concentration 1000.0 nM
[22] = target: Tyrosine-protein kinase receptor TYRO3 (Homo sapiens) (UniProt Q06418); conditions: Compound concentration 1000.0 nM
[23] = target: Microtubule-associated serine/threonine-protein kinase 1 (Homo sapiens) (UniProt Q9Y2H9); conditions: Compound concentration 1000.0 nM
[24] = target: Mitotic checkpoint serine/threonine-protein kinase BUB1 (Homo sapiens) (UniProt O43683); conditions: Compound concentration 1000.0 nM
[25] = target: Casein kinase II subunit alpha (Homo sapiens) (UniProt P68400); conditions: Compound concentration 1000.0 nM
[26] = tested on: Tyrosine-protein kinase ABL1 (Homo sapiens), P00519 [H396P]; conditions: Compound concentration 1000.0 nM
[27] = target: Phosphatidylinositol 4,5-bisphosphate 3-kinase catalytic subunit gamma isoform (Homo sapiens) (UniProt P48736); conditions: Compound concentration 1000.0 nM
[28] = target: Serine/threonine-protein kinase PAK 1 (Homo sapiens) (UniProt Q13153); conditions: Compound concentration 1000.0 nM
[29] = tested on: Receptor-type tyrosine-protein kinase FLT3 (Homo sapiens), P36888 [D835V]; conditions: Compound concentration 1000.0 nM
[30] = target: Serine/threonine-protein kinase 33 (Homo sapiens) (UniProt Q9BYT3); conditions: Compound concentration 1000.0 nM
[31] = target: Calcium/calmodulin-dependent protein kinase kinase 1 (Homo sapiens) (UniProt Q8N5S9); conditions: Compound concentration 1000.0 nM
[32] = target: 5-hydroxytryptamine receptor 2B (Homo sapiens) (UniProt P41595); conditions: Compound concentration 10.0 uM
[33] = target: Phosphatidylinositol 5-phosphate 4-kinase type-2 gamma (Homo sapiens) (UniProt Q8TBX8); conditions: Compound concentration 1000.0 nM
[34] = target: Macrophage-stimulating protein receptor (Homo sapiens) (UniProt Q04912); conditions: Compound concentration 1000.0 nM
[35] = target: Proto-oncogene tyrosine-protein kinase Src (Homo sapiens) (UniProt P12931); conditions: Compound concentration 1000.0 nM
[36] = target: Ribosomal protein S6 kinase beta-1 (Homo sapiens) (UniProt P23443); conditions: Compound concentration 1000.0 nM
[37] = target: Ribosomal protein S6 kinase alpha-6 (Homo sapiens) (UniProt Q9UK32); conditions: Compound concentration 1000.0 nM
[38] = target: Tyrosine-protein kinase BTK (Homo sapiens) (UniProt Q06187); conditions: Compound concentration 1000.0 nM
[39] = target: Serine/threonine-protein kinase B-raf (Homo sapiens) (UniProt P15056); conditions: Compound concentration 1000.0 nM
[40] = tested on: Tyrosine-protein kinase ABL1 (Homo sapiens), P00519 [F317I]; conditions: Compound concentration 1000.0 nM
[41] = tested on: Tyrosine-protein kinase ABL1 (Homo sapiens), P00519 [Q252H]; conditions: Compound concentration 1000.0 nM
[42] = tested on: Tyrosine-protein kinase ABL1 (Homo sapiens), P00519 [F317L]; conditions: Compound concentration 1000.0 nM
[43] = tested on: Tyrosine-protein kinase ABL1 (Homo sapiens), P00519 [F317L]; conditions: Compound concentration 1000.0 nM; remark: listed apart in the source
[44] = target: Delta-type opioid receptor (Homo sapiens) (UniProt P41143); conditions: Compound concentration 10.0 uM
[45] = tested on: Tyrosine-protein kinase ABL1 (Homo sapiens), P00519 [T315I]; conditions: Compound concentration 1000.0 nM

Calcium/calmodulin-dependent protein kinase kinase 1 (Homo sapiens), sequence (Q8N5S9 whole entry, looked up): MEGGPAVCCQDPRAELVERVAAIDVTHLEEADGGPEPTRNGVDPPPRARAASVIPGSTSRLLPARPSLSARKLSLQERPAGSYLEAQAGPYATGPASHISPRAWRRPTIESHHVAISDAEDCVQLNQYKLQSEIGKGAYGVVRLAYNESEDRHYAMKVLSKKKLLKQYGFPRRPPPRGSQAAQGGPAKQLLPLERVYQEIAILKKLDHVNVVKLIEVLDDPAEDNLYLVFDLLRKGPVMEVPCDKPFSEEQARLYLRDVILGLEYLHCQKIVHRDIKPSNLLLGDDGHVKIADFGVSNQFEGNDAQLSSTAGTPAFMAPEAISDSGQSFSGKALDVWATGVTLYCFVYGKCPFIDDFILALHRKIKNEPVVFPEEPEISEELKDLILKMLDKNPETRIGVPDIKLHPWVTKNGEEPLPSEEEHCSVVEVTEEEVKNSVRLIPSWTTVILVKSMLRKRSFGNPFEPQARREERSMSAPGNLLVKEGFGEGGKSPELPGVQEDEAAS
Epithelial discoidin domain-containing receptor 1 (Homo sapiens), sequence (Q08345 whole entry, the tested form may be a part): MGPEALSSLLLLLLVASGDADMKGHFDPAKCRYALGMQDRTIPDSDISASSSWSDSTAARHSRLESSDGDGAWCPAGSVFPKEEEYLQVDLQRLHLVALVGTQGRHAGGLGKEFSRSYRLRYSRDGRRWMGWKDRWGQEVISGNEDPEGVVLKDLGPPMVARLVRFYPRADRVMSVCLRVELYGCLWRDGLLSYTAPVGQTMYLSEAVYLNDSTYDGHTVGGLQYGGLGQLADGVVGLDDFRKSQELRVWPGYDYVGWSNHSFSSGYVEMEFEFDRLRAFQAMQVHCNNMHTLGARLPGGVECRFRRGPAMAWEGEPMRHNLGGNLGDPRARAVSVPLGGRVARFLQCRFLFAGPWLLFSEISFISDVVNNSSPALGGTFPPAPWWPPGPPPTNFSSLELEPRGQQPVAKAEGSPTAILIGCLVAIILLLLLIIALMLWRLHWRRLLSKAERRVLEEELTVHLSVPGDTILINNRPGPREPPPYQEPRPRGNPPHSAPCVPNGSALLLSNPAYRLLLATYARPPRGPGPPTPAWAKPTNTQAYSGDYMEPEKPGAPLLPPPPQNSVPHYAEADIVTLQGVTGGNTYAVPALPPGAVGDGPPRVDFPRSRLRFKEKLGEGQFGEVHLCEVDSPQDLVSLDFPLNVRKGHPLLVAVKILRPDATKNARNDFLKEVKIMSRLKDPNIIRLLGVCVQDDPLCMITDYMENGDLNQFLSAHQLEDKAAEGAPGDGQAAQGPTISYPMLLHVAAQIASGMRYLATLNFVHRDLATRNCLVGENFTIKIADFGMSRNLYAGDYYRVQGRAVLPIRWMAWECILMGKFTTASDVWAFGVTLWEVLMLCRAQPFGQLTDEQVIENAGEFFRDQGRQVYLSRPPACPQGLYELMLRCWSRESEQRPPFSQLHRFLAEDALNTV
Microtubule-associated serine/threonine-protein kinase 1 (Homo sapiens), sequence (Q9Y2H9 whole entry, looked up): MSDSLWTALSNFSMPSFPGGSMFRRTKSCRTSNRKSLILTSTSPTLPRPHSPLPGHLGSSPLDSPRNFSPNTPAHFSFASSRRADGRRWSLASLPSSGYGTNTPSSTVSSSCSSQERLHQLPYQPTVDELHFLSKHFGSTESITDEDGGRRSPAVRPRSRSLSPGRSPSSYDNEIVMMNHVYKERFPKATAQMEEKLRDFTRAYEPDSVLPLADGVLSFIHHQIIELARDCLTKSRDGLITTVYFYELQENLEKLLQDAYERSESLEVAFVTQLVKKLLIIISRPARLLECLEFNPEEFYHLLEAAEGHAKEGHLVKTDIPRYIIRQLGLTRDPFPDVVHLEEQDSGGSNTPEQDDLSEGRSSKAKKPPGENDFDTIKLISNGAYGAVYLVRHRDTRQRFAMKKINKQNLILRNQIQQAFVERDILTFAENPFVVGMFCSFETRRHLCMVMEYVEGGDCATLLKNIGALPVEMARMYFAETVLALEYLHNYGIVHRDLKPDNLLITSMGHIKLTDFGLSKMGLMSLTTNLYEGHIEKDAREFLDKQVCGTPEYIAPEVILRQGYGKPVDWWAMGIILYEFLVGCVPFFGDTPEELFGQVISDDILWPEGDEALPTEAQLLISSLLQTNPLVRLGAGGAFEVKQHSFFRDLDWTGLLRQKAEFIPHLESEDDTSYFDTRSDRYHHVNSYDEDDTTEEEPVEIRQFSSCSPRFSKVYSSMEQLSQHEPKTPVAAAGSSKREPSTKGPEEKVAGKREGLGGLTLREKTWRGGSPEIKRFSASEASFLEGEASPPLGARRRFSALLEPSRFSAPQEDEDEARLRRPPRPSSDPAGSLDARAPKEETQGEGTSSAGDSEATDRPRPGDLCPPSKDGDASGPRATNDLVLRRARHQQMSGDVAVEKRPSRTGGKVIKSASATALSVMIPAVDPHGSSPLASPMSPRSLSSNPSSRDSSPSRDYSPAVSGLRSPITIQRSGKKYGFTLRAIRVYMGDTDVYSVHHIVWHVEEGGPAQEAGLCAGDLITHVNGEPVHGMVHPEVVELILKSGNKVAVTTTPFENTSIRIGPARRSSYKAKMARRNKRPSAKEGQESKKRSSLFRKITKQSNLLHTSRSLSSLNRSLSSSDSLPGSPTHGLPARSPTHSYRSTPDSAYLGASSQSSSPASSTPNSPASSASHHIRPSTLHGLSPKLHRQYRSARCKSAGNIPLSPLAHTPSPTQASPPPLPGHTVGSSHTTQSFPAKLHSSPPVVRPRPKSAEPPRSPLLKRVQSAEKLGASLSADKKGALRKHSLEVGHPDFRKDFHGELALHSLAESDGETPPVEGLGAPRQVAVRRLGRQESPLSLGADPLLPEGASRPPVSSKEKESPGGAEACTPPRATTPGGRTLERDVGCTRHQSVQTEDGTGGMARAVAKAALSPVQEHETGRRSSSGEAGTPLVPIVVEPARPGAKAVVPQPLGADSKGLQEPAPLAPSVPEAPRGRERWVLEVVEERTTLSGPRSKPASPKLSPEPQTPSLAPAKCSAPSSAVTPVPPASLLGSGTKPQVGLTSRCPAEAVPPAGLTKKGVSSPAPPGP
T1 sequence (Q01959 whole entry): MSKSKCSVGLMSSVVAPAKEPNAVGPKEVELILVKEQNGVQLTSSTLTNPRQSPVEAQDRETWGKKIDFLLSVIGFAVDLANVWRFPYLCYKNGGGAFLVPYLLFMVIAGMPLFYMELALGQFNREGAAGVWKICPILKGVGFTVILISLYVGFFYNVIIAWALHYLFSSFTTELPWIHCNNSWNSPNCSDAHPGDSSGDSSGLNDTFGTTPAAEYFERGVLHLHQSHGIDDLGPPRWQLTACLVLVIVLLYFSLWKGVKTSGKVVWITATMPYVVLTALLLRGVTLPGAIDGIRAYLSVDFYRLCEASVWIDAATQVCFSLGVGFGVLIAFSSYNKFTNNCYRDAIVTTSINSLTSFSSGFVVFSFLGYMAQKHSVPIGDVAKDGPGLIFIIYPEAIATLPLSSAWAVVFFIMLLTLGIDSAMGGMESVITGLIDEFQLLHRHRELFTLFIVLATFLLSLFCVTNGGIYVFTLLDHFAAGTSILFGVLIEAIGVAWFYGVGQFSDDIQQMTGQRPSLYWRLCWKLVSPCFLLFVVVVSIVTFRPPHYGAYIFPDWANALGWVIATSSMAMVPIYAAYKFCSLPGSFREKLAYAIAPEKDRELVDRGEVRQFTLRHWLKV
Tyrosine-protein kinase HCK (Homo sapiens), sequence (P08631 2-526 limits assumed): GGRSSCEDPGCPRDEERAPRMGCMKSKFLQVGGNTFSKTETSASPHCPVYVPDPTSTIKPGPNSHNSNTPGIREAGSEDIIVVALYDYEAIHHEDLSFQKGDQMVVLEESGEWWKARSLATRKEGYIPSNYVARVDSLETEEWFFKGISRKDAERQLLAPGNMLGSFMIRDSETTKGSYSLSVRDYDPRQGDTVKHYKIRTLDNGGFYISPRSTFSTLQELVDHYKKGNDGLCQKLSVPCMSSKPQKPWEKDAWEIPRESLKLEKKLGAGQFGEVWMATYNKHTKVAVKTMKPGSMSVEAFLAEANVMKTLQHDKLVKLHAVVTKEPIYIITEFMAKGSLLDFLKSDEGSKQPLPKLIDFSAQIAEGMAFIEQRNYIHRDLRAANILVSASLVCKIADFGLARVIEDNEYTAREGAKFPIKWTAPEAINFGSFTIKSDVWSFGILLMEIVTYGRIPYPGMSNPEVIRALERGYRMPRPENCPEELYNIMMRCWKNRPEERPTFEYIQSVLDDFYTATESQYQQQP
Serine/threonine-protein kinase PAK 1 (Homo sapiens), sequence (Q13153 whole entry): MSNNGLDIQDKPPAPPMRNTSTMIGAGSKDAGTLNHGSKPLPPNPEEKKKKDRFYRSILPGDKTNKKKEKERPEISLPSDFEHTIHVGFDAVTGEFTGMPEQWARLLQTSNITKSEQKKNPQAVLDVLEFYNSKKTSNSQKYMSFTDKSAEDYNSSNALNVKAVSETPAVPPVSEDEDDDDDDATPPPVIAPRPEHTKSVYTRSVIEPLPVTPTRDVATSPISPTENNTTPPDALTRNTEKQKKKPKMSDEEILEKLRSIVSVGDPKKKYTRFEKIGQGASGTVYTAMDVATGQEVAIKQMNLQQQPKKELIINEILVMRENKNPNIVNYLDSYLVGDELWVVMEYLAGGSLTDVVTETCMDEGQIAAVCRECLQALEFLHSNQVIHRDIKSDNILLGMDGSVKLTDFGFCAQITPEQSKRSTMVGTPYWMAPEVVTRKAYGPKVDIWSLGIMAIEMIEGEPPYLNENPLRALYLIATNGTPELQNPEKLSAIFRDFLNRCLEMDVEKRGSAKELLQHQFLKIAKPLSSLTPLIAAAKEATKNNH

SMILES | residual activity [2] | residual activity [3] | residual activity [4] | residual activity [5] | residual activity [7] | residual activity [11] | residual activity [12] | residual activity [13] | residual activity [14] | residual activity [16] | residual activity [19] | residual activity [20] | residual activity [21] | residual activity [22] | residual activity [23] | residual activity [24] | residual activity [25] | residual activity [26] | residual activity [27] | residual activity [28] | further results
CN([C@@H]1CCc2c(CC(=O)O)c3ccccc3n2C1)S(=O)(=O)c1ccc(F)cc1 [MK-7246] | 100% | 100% | 100% | 100% | 93% | 100% | 100% | 97% | 78% | 100% | 95% | 100% | 100% | 72% | 100% | 79% | 82% | 100% | 100% | 96% | residual activity [1]: 100%; residual activity [6]: 94%; residual activity [8]: 100%; inhibition [9]: 77.1%; residual activity [10]: 100%; inhibition [15]: -3.89%; Ki [17]: 373 nM (not active); inhibition [18]: 4.03%; residual activity [29]: 94%; residual activity [30]: 100%; residual activity [31]: 91%; inhibition [32]: -4.07%; residual activity [33]: 100%; residual activity [34]: 93%; residual activity [35]: 100%; residual activity [36]: 100%; residual activity [37]: 100%; residual activity [38]: 86%
CN([C@@H]1CCc2c(CC(=O)O)c3cc(S(C)(=O)=O)ccc3n2C1)S(=O)(=O)c1ccc(F)cc1 | 100% | 100% | 94% | 100% | 97% | 100% | 85% | 100% | 100% | 100% | 87% | 100% | 98% | 91% | 93% | 86% | 91% | 55% | 100% | 95% | residual activity [39]: 98%; residual activity [40]: 76%; residual activity [41]: 79%; residual activity [42]: 92%; residual activity [43]: 90%; inhibition [44]: 20%; residual activity [29]: 99%; residual activity [30]: 99%; residual activity [31]: 100%; residual activity [33]: 100%; residual activity [34]: 94%; residual activity [35]: 96%; residual activity [45]: 88%; residual activity [36]: 100%; residual activity [37]: 100%; residual activity [38]: 90%
